This is an account of results in ChEMBL document CHEMBL1146562, “Turbinatine, a potential key intermediate in the biosynthesis of corynanthean-type indole alkaloids” (2003).

Test [1] deals with Saccharomyces cerevisiae. Nature of the test: DNA damaging activity in yeast RS 188N mutant assessed as drug level required to produce 12 mm zone of inhibition. Format: functional.
Test [2] deals with Saccharomyces cerevisiae. Kind of test: DNA damaging activity in yeast RS 322YK mutant assessed as drug level required to produce 12 mm zone of inhibition. The format is functional.

As for `C=C[C@H]1[C@H](O[C@@H]2O[C@H](CO)[C@@H](O)[C@H](O)[C@H]2O)OC=C(C(=O)OC)[C@H]1C[C@@H]1NCCc2c1[nH]c1ccccc21` [STRICTOSIDINE], the figures for the IC12 in the test with Saccharomyces cerevisiae [1] and in the test with Saccharomyces cerevisiae [2] were over 250 µg/mL and 100 µg/mL, respectively.
On to `C/C=C(/C=O)[C@@H]1C[C@H]2c3[nH]c4ccccc4c3CCN2C=C1C(=O)OC` [VALLESIACHOTAMINE], for which the IC12 was over 250 µg/mL in the test on Saccharomyces cerevisiae [1] and 100 µg/mL in the test with Saccharomyces cerevisiae [2].
Take `C=C[C@H]1[C@@H](/C(=C/O)C(=O)OC)C[C@H]2c3[nH]c4ccccc4c3CCN2[C@H]1O[C@H]1O[C@@H](CO)[C@H](O)[C@@H](O)[C@@H]1O` [TURBINATINE]: the IC12 with Saccharomyces cerevisiae [1] is over 250 µg/mL; in the test on Saccharomyces cerevisiae [2], 100 µg/mL.
As to `C/C=C(\C=O)[C@@H]1C[C@H]2c3[nH]c4ccccc4c3CCN2C=C1C(=O)OC` [ISOVALLESIACHOTAMINE], the IC12 in the test on Saccharomyces cerevisiae [1] is over 250 µg/mL; in the test with Saccharomyces cerevisiae [2], 100 µg/mL.
Regarding `C=C[C@H]1[C@H](O[C@@H]2O[C@H](CO)[C@@H](O)[C@H](O)[C@H]2O)OC=C(C(=O)OC)[C@H]1C[C@@H]1N[C@@H](C(=O)O)Cc2c1[nH]c1ccccc21`, the IC12 was over 250 µg/mL in the test with Saccharomyces cerevisiae [1] and 100 µg/mL with Saccharomyces cerevisiae [2].
